Like-named read-outs stand apart in the source and are kept apart here.
What was measured:
HeLa cells = assay: Cytotoxicity in HeLa cells (ATP content, ATPlite kit); type: cell-based
Outline: (§1)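 Over 3 days at 37 °C, compound titrations (4-fold steps, nine dilutions) were tested on HeLa cells infected with rgRSV224 (MOI = 1), inhibition of GFP signal giving EC50. In parallel plates, ATP content of HeLa cells after 3-day exposure defined CC50.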

rgRSV224 virus = assay: Antiviral activity: rgRSV224 (GFP) replication in HeLa cells; type: cell-based, respiratory syncytial virus (RSV)
Outline: as §1

[1] = Cytotoxicity in HeLa cells (ATP content, ATPlite kit); type: cell-based; conditions: human
Outline: as §1

[2] = HeLa cells, three days incubation, ATP content, averaged data of several repeat experiments, read-out: TOX HELA CC50
[3] = HeLa cells, rgRSV224 MOI = 1, GFP expression three days post-virus exposure, averaged data of several repeat experiments, read-out: RSV HELA EC50
[4] = read-out: RSV HELA EC50, HeLa cells, rgRSV224 MOI = 1, GFP expression three days post-virus exposure, averaged data of several repeat experiments
[5] = human respiratory syncytial virus, HeLa, 72 h, read-out: RSV HELA EC50, HeLa cells, rgRSV224 MOI = 1, GFP expression three days post-virus exposure, averaged data of several repeat experiments

Structure (SMILES) | CC50 at 3 days ([1]; TOX HELA CC50) [nM] | EC50 (rgRSV224 virus; [5]) [nM] | also measured
COc1cc(C(=O)NCC(O)(c2nc(-c3ccc(F)cc3)c(Cl)c(C(C)(C)O)c2F)C(F)(F)F)cc2cc(C)nnc12 (single isomer, unassigned; (+)) [compound 248, (+)-N-{2-[5-Chloro-3-Fluoro-6-(4-Fluorophenyl)-4-(2-Hydroxypropan-2-yl)Pyridin-2-yl]-3,3,3-Trifluoro-2-Hydroxypropyl}-8-Methoxv-3-Methylcinnoline-6-Carboxamide] | – | – | CC50 (HeLa cells; [2]): 41000 nM; EC50 (rgRSV224 virus; [3]): 500 nM
COc1cc(C(=O)NCC(O)(c2cc(C(C)(C)O)c(F)c(-c3ccc(F)cc3)n2)C(F)F)cc2cc(C)cnc12 (single isomer, unassigned; (-)) [compound 204, (-)-N-{3,3-Difluoro-2-[5-Fluoro-6-(4-Fluorophenyl)-4-(2-Hydroxypropan-2-yl)Pyridin-2-yl]-2-Hydroxypropyl}-8-Methoxy-3-Methylquinoline-6-Carboxamide] | – | – | CC50 (HeLa cells; human, 3 days): 48000 nM; EC50 (rgRSV224 virus; [4]): 1 nM
COc1cc(C(=O)NCC(O)(c2cc(C(C)(C)O)c(F)c(-c3ccc(F)cc3)n2)C(F)F)cc2cc(C)c(F)nc12 (single isomer, unassigned; (-)) [compound 214, (-)-N-{3,3-Difluoro-2-[5-Fluoro-6-(4-Fluorophenyl)-4-(2-Hydroxypropan-2-yl)Pyridin-2-yl]-2-Hydroxypropyl}-2-Fluoro-8-Methoxy-3-Methylquinoline-6-Carboxamide] | – | – | CC50 (HeLa cells; human, 3 days): 28000 nM; EC50 (rgRSV224 virus; [4]): 1.4 nM
COc1cc(C(=O)NCC(O)(c2cc(C(C)(C)O)c(Cl)c(-c3ccc(F)cc3)n2)C(C)C)cc2cc(C)nnc12 (single isomer, unassigned; (-)) [compound 231, (-)-N-{2-[5-Chloro-6-(4-Fluorophenyl)-4-(2-Hydroxypropan-2-yl)Pyridin-2-yl]-2-Hydroxy-3-Methylbutyl}-8-Methoxy-3-Methylcinnolme-6-Carboxamide] | – | – | CC50 (HeLa cells; [2]): 21000 nM; EC50 (rgRSV224 virus; [3]): 0.41 nM
COc1cc(C(=O)NCC(O)(c2cc(C(C)(C)O)c(F)c(-c3ccc(F)cc3)n2)C(F)F)cc2cc(C)nnc12 (single isomer, unassigned; (-)) [compound 250, (-)-N-{3,3-Difluoro-2-[5-Fluoro-6-(4-Fluorophenyl)-4-(2-Hydroxypropan-2-yl)Pyridin-2-yl]-2-Hydroxypropyl}-8-Methoxy-3-Methylcinnoline-6-Carboxamide] | – | – | CC50 (HeLa cells; human, 3 days): 40000 nM; EC50 (rgRSV224 virus; [4]): 1.4 nM
Cc1cc2cc(C(=O)NC[C@](O)(c3cc(C(C)(C)O)c(F)c(-c4ccc(F)cc4)n3)C(F)(F)F)cc(OC(F)F)c2nn1 [compound 312, (-)(Difluoromethoxy)-3-Methyl-N-(3.3.3-Trifluoro-2-(5-Fluoro-6-(4-Fluorophenyl)-4-(2-Hydroxypropan-2-yl)Pyridin-2-yl)-2-Hydroxypropyl)Cinnoline-6-Carboxamide] | 13000 | 2.8 | –
COc1cc(C(=O)NC[C@](O)(c2cc(C(C)(C)O)c(F)c(-c3ccc(F)cc3)n2)C(C)(F)F)cc2cc(C)nnc12 [compound 313, (-)-N-(3,3-difluoro-2-(5-fluoro-6-(4-fluorophenyl)-4-(2-hydroxypropan-2-yl)pyridin-2-yl)-2-hydroxybutyl)-8-methoxy-3-methylcinnoline-6-carboxamide] | 42000 | 1 | –
COc1cc(C(=O)NC[C@@](O)(c2cc(C(C)(C)O)c(F)c(-c3ccc(F)cc3)n2)C(C)(F)F)cc2cc(C)nnc12 [compound 314, (+)-N-(3,3-difluoro-2-(5-fluoro-6-(4-fluorophenyl)-4-(2-hydroxypropan-2-yl)pyridin-2-yl)-2-hydroxybutyl)-8-methoxy-3-methylcinnoline-6-carboxamide] | 35000 | 168 | –
[2H]C([2H])(NC(=O)c1cc(OC)c2nnc(C)cc2c1)[C@@](O)(c1cc(C(C)(C)O)c(F)c(-c2ccc(F)cc2)n1)C1CC1 [compound 315] | 27000 | 47 | –
[2H]C([2H])(NC(=O)c1cc(OC)c2nnc(C)cc2c1)[C@](O)(c1cc(C(C)(C)O)c(F)c(-c2ccc(F)cc2)n1)C1CC1 [compound 316] | 33000 | 0.34 | –
Cc1cc2cc(C(=O)NC[C@](O)(c3cc(C(C)(C)O)c(F)c(-c4ccc(F)cc4)n3)C(F)(F)F)cc(OC3CC3)c2nn1 [compound 318, (-)Cyclopropoxy-3-Methyl-N-(3.3.3-Trifluoro-2-(5-Fluoro-6-(4-Fluorophenyl)-4-(2-Hydroxypropan-2-yl)Pyridin-2-yl)-2-Hydroxypropyl)Cinnoline-6-Carboxamide] | 22000 | 1.4 | –
COc1cc(C(=O)NC[C@](O)(c2cc(C(C)(C)O)c(F)c(-c3ccc(F)cc3)n2)C(F)(F)F)cc2cc(C3CC3)cnc12 [compound 321, (-)Cyclopropyl-8-Methoxy-N-(3,3,3-Trifluoro-2-(5-Fluoro-6-(4-Fluorophenyl)-4-(2-Hydroxypropan-2-yl)Pyridin-2-yl)-2-Hydroxypropyl)Quinoline-6-Carboxamide] | 13000 | 54 | –
COc1cc(C(=O)NC[C@](O)(c2cc(C(C)(C)O)c(F)c(-c3ccc(F)cc3)n2)C(F)(F)F)cc2cc(C)cnc12 [compound 322, (-)Methoxy-3-Methyl-N-(3,3,3-Trifluoro-2-(5-Fluoro-6-(4-Fluorophenyl)-4-(2-Hydroxypropan-2-yl)Pyridm-2-yl)-2-Hydroxypropyl)Qumolme-6-Carboxamide] | 15000 | 4.5 | –
COc1cc(C(=O)NC[C@](O)(c2cc(C(C)(C)O)c(F)c(-c3ccc(F)cc3)n2)C(F)(F)F)cc2cc(CF)cnc12 [compound 324, (-)(Fluoromethyl)-8-Methoxy-N-(3,3,3-Trifluoro-2-(5-Fluoro-6-(4-Fluorophenyl)-4-(2-Hydroxypropan-2-yl)Pyridin-2-yl)-2-Hydroxypropyl)Quinoline-6-Carboxamide] | 4000 | 12 | –
COc1cc(C(=O)NC[C@](O)(c2cc(C(C)(C)O)c(F)c(-c3ccc(F)cc3)n2)C(F)(F)F)cc2cc(C(F)F)cnc12 [compound 325, (-)(Difluoromethyl)-8-Methoxy-N-(3,3,3-Trifluoro-2-(5-Fluoro-6-(4-Fluorophenyl)-4-(2-Hydroxypropan-2-yl)Pyridin-2-yl)-2-Hydroxypropyl)Quinoline-6-Carboxamide] | 13000 | 3.6 | –
COc1cc(C(=O)NC[C@](O)(c2cc(C(C)(C)O)c(F)c(-c3ccc(F)cc3)n2)C(F)(F)F)cc2cc(C(F)(F)F)cnc12 [compound 326, (-)(Trifluoromethyl)-8-Methoxy-N-(3,3,3-Trifluoro-2-(5-Fluoro-6-(4-Fluorophenyl)-4-(2-Hydroxypropan-2-yl)Pyridin-2-yl)-2-Hydroxypropyl)Quinoline-6-Carboxamide] | 13000 | 26 | –
COc1cc(C(=O)NC[C@](O)(c2cc(C(C)(C)O)c(Cl)c(-c3ccc(F)cc3)n2)C(F)(F)F)cc2cc(C(F)F)cnc12 [compound 327, (-)(Difluoromethyl)-8-Methoxy-N-(3,3,3-Trifluoro-2-(5-Chloro-6-(4-Fluorophenyl)-4-(2-Hydroxypropan-2-yl)Pyridin-2-yl)-2-Hydroxypropyl)Quinoline-6-Carboxamide] | 15000 | 9.5 | –
COc1cc(C(=O)NC[C@](O)(c2cc(C(C)(C)O)c(Cl)c(-c3ccc(F)cc3)n2)C(F)(F)F)cc2cc(C(F)(F)F)cnc12 [compound 328, (-)(Trifluoromethyl)-8-Methoxy-N-(3,3,3-Trifluoro-2-(5-Chloro-6-(4-Fluorophenyl)-4-(2-Hydroxypropan-2-yl)Pyridin-2-yl)-2-Hydroxypropyl)Quinoline-6-Carboxamide] | 14000 | 40 | –
COc1cc(C(=O)NC[C@](O)(c2cc(C(C)(C)O)c(F)c(-c3ccc(F)c(F)c3)n2)C(F)(F)F)cc2cc(C(F)F)cnc12 [compound 330, (-)(Difluoromethyl)-8-Methoxy-N-(3,3,3-Trifluoro-2-(5-Fluoro-6-(3,4-Difluorophenyl)-4-(2-Hydroxypropan-2-yl)Pyridin-2-yl)-2-Hydroxypropyl)Quinoline-6-Carboxamide] | 13000 | 10 | –
COc1cc(C(=O)NC[C@](O)(c2cc(C(C)(C)O)c(Cl)c(-c3ccc(F)cc3)n2)C2CC2)cc2cc(C(F)(F)F)cnc12 [compound 331] | 14000 | 3.8 | –
COc1cc(C(=O)NC[C@](O)(c2cc(C(C)(C)O)c(F)c(-c3ccc(F)cc3)n2)C2CC2)cc2cc(C3CC3)cnc12 [compound 332, (-)Cyclopropyl-N-(2-Cyclopropyl-2-(5-Fluoro-6-(4-Fluorophenyl)-4-(2-Hydroxypropan-2-yl)Pyridin-2-yl)-2-Hydroxyethyl)-8-Methoxyquinoline-6-Carboxamide] | 14000 | 33 | –
COc1cc(C(=O)NC[C@@](O)(c2cc(C(C)(C)O)c(F)c(-c3ccc(F)cc3)n2)C(F)(F)F)cc2cc(C)nnc12 [compound 334, (+)Methoxy-3-Methyl-N-(3,3,3-Trifluoro-2-(5-Fluoro-6-(4-Fluorophenyl)-4-(2-Hydroxypropan-2-yl)Pyridin-2-yl)-2-Hydroxypropyl)Cinnoline-6-Carboxamide] | 17000 | 245 | –
COc1cc(C(=O)NCC(O)(c2cc(C(C)(C)N)c(F)c(-c3ccc(F)c(Cl)c3)n2)C(F)(F)F)cc2cccnc12 (stereo not shown) [reference compound] | – | – | CC50 at 3 days ([1]; CC50): 13000 nM; EC50 (rgRSV224 virus; human respiratory syncytial virus, HeLa, comparison table 5.3, antiviral RSV assay of Example 5.1): 53 nM

— patent US20230203004A1, “RSV INHIBITING 3-SUBSTITUTED QUINOLINE AND CINNOLINE DERIVATIVES” (Janssen Sciences Ireland Unlimited Company, priority 2020, published 2023)
